The text below walks through data of paper PMC11863921 (BMC Biology, 2025).

“Also recorded” adds a separate entry of the source.

In this experiment the test system is AsolLGR4(short). In words: CRE reporter gene assay in HEK-293T cells transfected with AsolLGR4(short). Type of experiment: cell-based, A. cf. solaris. To be noted: HEK-293T cells with AsolLGR4(short), any concentration tested. The text has this:
The coding sequences for AsolRXFP/LGR3, AsolLGR4(short), and AsolLGR4(long) lacking a native N-terminal signal peptide were optimized for mammalian codon usage, but with the addition of a 5′ nucleotide sequence encoding an N-terminal bovine prolactin precursor signal peptide followed by a FLAG tag. The coding sequences for each construct are presented in Additional file 16: Dataset S9. Following the addition of a Kozak sequence (GCCACC) before the start codon of each coding sequence, the receptor cDNAs were synthesized in pUC57 vectors (GenScript, Hong Kong) with BamHI and XhoI restriction sites and Gateway‐compatible attB5 and attB2 sites at both ends to also allow recloning into pcDNA3.1/Zeo ( +) or Gateway (Invitrogen) vectors. pUC57 vectors were first digested with BamHI and XhoI restriction enzymes together with pcDNA3.1/Zeo ( +) followed by agarose gel purification of the digested DNA. Receptor constructs were ligated into the cut pcDNA3.1/Zeo ( +) vector to produce pcDNA-AsolRXFP/LGR3, pcDNA − AsolLGR4(short), and pcDNA − AsolLGR4(long). The sequences were confirmed by using Sanger sequencing on both strands. The AsolRXFP/LGR3 sequence was cloned into a lentiviral vector under the control of the constitutive human Ef1α promoter using Gateway technology (Invitrogen), according to the manufacturer’s instructions. […]
For orientation: A reporter such as luciferase makes a cellular process visible.

As to “Acanthaster cf. solaris Relaxin-like gonad-stimulating peptide 2 [AsolRGP2]”, the “cAMP activity / CRE reporter gene activation” value was “no significant increase in cAMP levels; also recorded: Neither AsolRGP1 nor AsolRGP2 induced CRE reporter gene activation”. In the case of “Acanthaster cf. solaris Relaxin-like gonad-stimulating peptide 1 [AsolRGP1]”, the “cAMP activity / CRE reporter gene activation” value was “no significant increase in cAMP levels; also recorded: Neither AsolRGP1 nor AsolRGP2 induced CRE reporter gene activation”.
